Test: Degradation of crosslinking agent after incubation in saturated NO solution (1H NMR, FT-IR, UV-Vis)
Type: physicochemical
Details: incubation in a saturated NO solution; primary amine peak disappeared, benzotriazole formed
Text: The mechanism by which the above synthesized crosslinking agent DA-NOCCL reacts with nitric oxide to degrade and the ^1H NMR, FT-IR, and UV-Vis absorption data confirming this are shown in FIGS. 4 and 5.

degradation in response to NO: can be degraded in response to NO
SMILES: C#CCCC(=O)Nc1ccc(NC(=O)CCC#C)c(N)c1 [DA-NOCCL]

From US12564598B2, “Nitric oxide-sensitive hydrogel” (POSTECH RESEARCH AND BUSINESS DEVELOPMENT FOUNDATION, priority 2021, dated 2026)
